We go through four compounds from publication PMC8654920, “PET imaging of brain aromatase in humans and rhesus monkeys by ^11C-labeled cetrozole analogs” (Scientific Reports, 2021).

This assay has as its target T1, aromatase (Callithrix jacchus, UniProt Q95M61).
T1 construct: gene CYP19A1; microsomal fraction of marmoset placenta
T1 sequence (Q95M61 1-503): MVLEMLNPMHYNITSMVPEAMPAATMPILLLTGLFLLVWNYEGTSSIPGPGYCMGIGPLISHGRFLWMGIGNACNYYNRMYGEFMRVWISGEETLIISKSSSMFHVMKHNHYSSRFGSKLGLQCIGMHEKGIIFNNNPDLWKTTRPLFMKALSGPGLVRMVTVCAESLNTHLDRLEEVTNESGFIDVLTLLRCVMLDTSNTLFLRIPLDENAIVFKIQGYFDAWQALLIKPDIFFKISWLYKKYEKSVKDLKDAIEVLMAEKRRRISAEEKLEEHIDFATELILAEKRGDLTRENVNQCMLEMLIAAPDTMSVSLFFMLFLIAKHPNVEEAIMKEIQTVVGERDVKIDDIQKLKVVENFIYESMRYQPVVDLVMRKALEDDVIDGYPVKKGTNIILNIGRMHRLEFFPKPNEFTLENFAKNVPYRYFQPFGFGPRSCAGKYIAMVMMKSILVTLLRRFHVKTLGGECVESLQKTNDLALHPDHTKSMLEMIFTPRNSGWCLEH
Kind of assay: inhibition of [[…]-14C]testosterone conversion by placental microsomes, TLC autoradiography. In kind it is biochemical.

Each structure is given as a SMILES string.

What is called IC50 is the midpoint of a concentration-inhibition curve. Low values mean greater potency in that assay, high ones weaker potency in that assay. `Cc1ccc(CN(c2ccc(C#N)cc2)n2cnnc2)cc1` [cetrozole]: half-maximal inhibition (IC50) was put at 0.98 nM.

`Cc1ccc(CN(c2ccc(C#N)cc2)n2cncn2)cc1` [iso-cetrozole] came in with an IC50 of 0.68 nM.

The compound `Cc1cccc(CN(c2ccc(C#N)cc2)n2cnnc2)c1` [meta-cetrozole] displayed an IC50 of 3.5 nM.

Turning to `Cc1ccc(CN(c2ccc([N+](=O)[O-])cc2)n2cnnc2)cc1` [nitro-cetrozole], the IC50 was determined as 0.73 nM.
